We go through 1 cell line from the supplement of paper PMC10307832.

What all share (experiment): relative viability (nuclei count vs DMSO), 5 days (fraction); higher = more cells survive
Compound in the assay “Everolimus + Foretinib”: CO[C@H]1C[C@@H]2CC[C@@H](C)[C@@](O)(O2)C(=O)C(=O)N2CCCC[C@H]2C(=O)O[C@H]([C@H](C)C[C@@H]2CC[C@@H](OCCO)[C@H](OC)C2)CC(=O)[C@H](C)/C=C(\C)[C@@H](O)[C@@H](OC)C(=O)[C@H](C)C[C@H](C)/C=C/C=C/C=C/1C [Everolimus] + COc1cc2c(Oc3ccc(NC(=O)C4(C(=O)Nc5ccc(F)cc5)CC4)cc3F)ccnc2cc1OCCCN1CCOCC1 [Foretinib] (partner 0.25 µM)
The essentials:
(§1)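 Lung cancer cell lines were seeded in 1536-well plates and dosed by pin tool the next day, with either a single drug or a fixed anchor-drug dose combined with five library-drug doses (not always all listed) spaced in √10 steps. Five days later, one step fixed the cells and stained their nuclei (final 0.05% Triton X-100, 1% formaldehyde, 1 ug/ml Hoechst), and nuclei were counted on 4× images. Relative viability is the nuclei count in treated wells divided by the count in vehicle wells, and each value is the median of duplicate plates.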

Compound in the assay “Everolimus + Pictilisib”: CO[C@H]1C[C@@H]2CC[C@@H](C)[C@@](O)(O2)C(=O)C(=O)N2CCCC[C@H]2C(=O)O[C@H]([C@H](C)C[C@@H]2CC[C@@H](OCCO)[C@H](OC)C2)CC(=O)[C@H](C)/C=C(\C)[C@@H](O)[C@@H](OC)C(=O)[C@H](C)C[C@H](C)/C=C/C=C/C=C/1C [Everolimus] + CS(=O)(=O)N1CCN(Cc2cc3nc(-c4cccc5[nH]ncc45)nc(N4CCOCC4)c3s2)CC1 [Pictilisib] (partner 1 µM)
The essentials:
as §1

Compound in the assay “Everolimus + AZD7762”: CO[C@H]1C[C@@H]2CC[C@@H](C)[C@@](O)(O2)C(=O)C(=O)N2CCCC[C@H]2C(=O)O[C@H]([C@H](C)C[C@@H]2CC[C@@H](OCCO)[C@H](OC)C2)CC(=O)[C@H](C)/C=C(\C)[C@@H](O)[C@@H](OC)C(=O)[C@H](C)C[C@H](C)/C=C/C=C/C=C/1C [Everolimus] + NC(=O)Nc1cc(-c2cccc(F)c2)sc1C(=O)N[C@H]1CCCNC1 [AZD7762] (partner 0.2 µM)
The essentials:
as §1

Compound in the assay “Everolimus + Vorinostat”: CO[C@H]1C[C@@H]2CC[C@@H](C)[C@@](O)(O2)C(=O)C(=O)N2CCCC[C@H]2C(=O)O[C@H]([C@H](C)C[C@@H]2CC[C@@H](OCCO)[C@H](OC)C2)CC(=O)[C@H](C)/C=C(\C)[C@@H](O)[C@@H](OC)C(=O)[C@H](C)C[C@H](C)/C=C/C=C/C=C/1C [Everolimus] + O=C(CCCCCCC(=O)Nc1ccccc1)NO [Vorinostat] (partner 1 µM)
The procedure, abridged: as §1

For the cell line HOP-62, the relative viability with Everolimus + Foretinib (first compound 0.01 µM) was determined as 0.903; with Everolimus + Foretinib (first compound 0.03162 µM), 0.835; with Everolimus + Foretinib (first compound 0.1 µM) it was 0.776; with Everolimus + Foretinib (first compound 0.3162 µM), 0.731; with Everolimus + Foretinib (first compound 1 µM), 0.779; with Everolimus + Pictilisib (first compound 0.01 µM), 0.326. In addition, the relative viability amounted to 0.274 with Everolimus + Pictilisib (first compound 0.03162 µM); 0.17 in the assay with Everolimus + Pictilisib (first compound 0.1 µM); 0.267 with Everolimus + Pictilisib (first compound 0.3162 µM); 0.352 with Everolimus + Pictilisib (first compound 1 µM); 0.289 with Everolimus + AZD7762 (first compound 0.01 µM); 0.346 in the assay with Everolimus + AZD7762 (first compound 0.03162 µM). Moreover, the relative viability was found to be 0.412 in the assay with Everolimus + AZD7762 (first compound 0.1 µM); 0.402 with Everolimus + AZD7762 (first compound 0.3162 µM); 0.37 with Everolimus + AZD7762 (first compound 1 µM); 0.475 with Everolimus + Vorinostat (first compound 0.01 µM); 0.345 in the assay with Everolimus + Vorinostat (first compound 0.03162 µM); 0.388 with Everolimus + Vorinostat (first compound 0.1 µM). In addition, the relative viability with Everolimus + Vorinostat (first compound 0.3162 µM) stood at 0.389; with Everolimus + Vorinostat (first compound 1 µM) it was 0.361.
